Values quoted from earlier work as cited in patent US9676702B2, “Methods for synthesizing amatoxin building block and amatoxins” (Heidelberg Pharma GmbH, priority 2012, dated 2017).

Biological target: RNA-polymerase II (Homo sapiens, UniProt P24928+P30876)
Conditions: non-covalent complex; background statement, no method given; read-out: KD of the complex between amanitin and RNA-polymerase II

Substance: amanitin
- Kd: 3 nM
